The text below walks through data of patent US10100077B2, “6-aryl-9-glycosylpurines and use thereof” (UNIVERZITA PALACKEHO V OLOMOUCI, priority 2014, dated 2018).

Series [1] is described as follows: Calcein AM cytotoxicity assay, NIH3T3. Conditions: mouse, NIH3T3 fibroblasts. Type of series: cell-based, mouse. An excerpt: (§1) One of the parameters used as the base for cytotoxic analysis is metabolic activity of viable cells, such as microtiter assay, which uses the Calcein AM, is now widely used to quantitate cell proliferation and cytotoxicity. The quantity of reduced Calcein AM corresponds to the number of viable cells in culture. The cell lines of breast cancer (MCF-7), mousse fibroblasts (NIH3T3), human erythromleukemia (K562) were used for routine screening of cytotoxicity of the compounds. The cells were maintened in Nunc/Corning 80 cm^2 plastic bottles and grown in media for cell culture (DMEM containing 5 g/l of glucose, 2 mM of glutamin, 100 U/ml of penicilin, […] of streptomycin, 10% of fetal bovine serum and sodium hydrogencarbonate). Cell suspensions were diluted according to cell types and according to expected final cell density (10^4 of cells per well according to characteristics of cell growth), pipetted 80 μl of cell suspension on 96-well microtiter plates. Innoculates were stabilized by 24 hrs preincubation at 37° C. in CO2. Particular concentrations of tested compounds were added in time zero as 20 μl aliquotto wells of microtiter plates. Usually, the compounds were diluted into six concentrations in four-fold dilution series. In routine testing, the highest well concentration was 166.7 μM, of change dependent on the substance. All drug concentrations were examined in duplicates. The incubation of cells with tested derivatives lasted 72 hrs at 37° C., 100% humidity and in the atmosphere of CO2. At the end of the incubation period, the cells were tested and analysed according to the addition of Calcein AM (Molecular probes) solution and the incubation lasted for next 1 hour. Fluorescence (FD) was measured using Labsystem FIA reader Fluorskan Ascent (Microsystems). The survival of tumor cells (The tumor cell survival-TCS) was counted according to equation: […]=(FDwell with derivative/FDcontrol well)×100%. The value of GI50, that is equal to the concentration of compound at which 50% of tumour cells are terminated. To evaluate the antitumor activity was tested toxicity of new derivatives on panel of cell lines of different histogenetic and species origin (Tab. 7, G150 concentration given in μM). […] Effective derivatives killed tumor cells in concentrations close to 0.1 to 50. None of the newly prepared compounds only reached the value.

The nature of series [2]: Calcein AM cytotoxicity assay, MCF-7. Type of series: cell-based. Conditions: human, MCF-7 breast cancer cells.
Description: as §1

A short description of series [3]: Calcein AM cytotoxicity assay, K562. It is filed as cell-based, human. Conditions: human, K562 erythroleukemia cells.
Description: as §1

The subject of series [4] is skin fibroblasts BJ and keratinocytes HaCaT. The series is described as follows: MTT in vitro cytotoxicity test for skin cells. Type of series: cell-based. The note with it: for IC50: Homo sapiens, MTT, 72 hour treatment, BJ and HaCaT, maximal concentration 50 microM. How it is done: MTT assay is a standard test of toxicity based on photometric measurement of the ability of metabolically active cells to reduce MTT (3-(4,5-dimethylthiazol-2-yl)-2,5-diphenyltetrazolium bromide). Using the assay, the effects of 72 hour treatments with several concentrations of the compounds (sixfold dilution, maximal concentration=50 microM) on viability of skin fibroblasts BJ and keratinocytes HaCaT were evaluated. About 5,000 cells were seeded per well of a 96-well plate 24 hours before the treatment. DMSO vehiculum was used as a negative control. After 72 hour treatment, new medium with MTT (Sigma, M2128) was added to a final concentration of 0.5 mg/ml. After 3 hours, medium was removed and resulting formazan in the cells was dissolved in DMSO. The absorbance was measured at 570 nm (640 nm reference wavelength). The IC50 values were calculated from the dose-response curves. 6-Benzylaminopurine riboside and 6-furfurylaminopurine riboside were used as positive controls they were toxic in the MTT test.

In series [5] the test system is detached leaf segments of Triticum aestivum cv. Hereward. The series is described as follows: Senescence bioassay on wheat leaf segments (chlorophyll retention). Conditions: for activity (%) [10^−4 mol · l^−1 BAP = 100%]: chlorophyll retention at maximum effective concentration, 96 h dark. How it is done:
Seeds of winter wheat, Triticum aestivum cv. Hereward, were washed under running water for 24 hours and then sown on vermiculite soaked with Knop's solution. They were placed in the growth chamber at 25° C. with a 16/8 h light period at 50 μmol·m^−2·s^−1. After 7 days, the first leaf was fully developed and the second leaf had started to grow. A tip section of the first leaf, approximately 35 mm long, was removed from 5 seedlings and trimmed slightly to a combined weight of 100 mg. The basal ends of the five leaf tips were placed in the wells of a microtiter polystyrene plate containing 150 μL, of the tested derivative solution each. The entire plate was inserted into a plastic box lined with paper tissues soaked in distilled water to prevent leaf sections from drying out. After 96 h incubation in the dark at 25° C., the leaves were removed and chlorophyll extracted by heating at 80° C. for 10 min in 5 mL of 80% ethanol (v/v). The sample volume was then restored to 5 mL by the addition of 80% ethanol (v/v). The absorbance of the extract was recorded at 665 nm. In addition, chlorophyll extracts from fresh leaves and leaf tips incubated in deionised water were measured. The results are means of five replicates and the entire test was repeated twice. […] The compounds to be tested were dissolved in dimethylsulfoxide (DMSO) and the solution brought up to 10^−3M with distilled water. This stock solution was further diluted with the respective media used for the biotest to a concentration ranging from 10^−8M to 10^−4M. […] The activity obtained for 10^−4 M of BAP was postulated as 100%.

Series [6] deals with skin fibroblasts BJ and keratinocytes HaCaT. Description: SRB in vitro toxicity test. It is filed as cell-based. The note with it: Homo sapiens, 72 hour treatment, maximal concentration 50 microM. How it is done:
SRB (sulforhodamine B) assay is a standard toxicity test based on a photometric measurement of the cellular protein content after the staining with sulphorhodamine B. Using the assay, the effects of 72 hour treatments with several concentrations of the compounds (sixfold dilution, maximal concentration=50 microM) on viability of skin fibroblasts BJ and keratinocytes HaCaT were evaluated. About 5,000 cells were seeded per well of a 96-well plate 24 hours before the treatment. DMSO vehiculum was used as a negative non-toxic control. 6-benzylaminopurine riboside a 6-furfurylaminopurin riboside were used as positive toxic controls. After three days the medium was removed and the cells fixed with 10% (wt/vol) trichloroacetic acid. After the extensive washing in distilled water, 0.4% (wt/vol) solution of SRB in acetic acid was added and the fixed cells were stained for 30 minutes. The unbound stain was washed away by distilled water and the bound SRB was solubilized in unbuffered 10 mM Tris base. Absorbance was measured at 564 nm. IC50 values were calculated from dose-response curves.

In series [7] the test system is Vaccinia virus and Herpes simplex virus. The note with it: cited from earlier work.
Series [8] concerns mousse fibroblasts (NIH3T3). The series is described as follows: Calcein AM cytotoxicity assay, NIH3T3. The note with it: 72 hrs. Type of series: cell-based, mouse.
Description: as §1

The next series has as its system breast cancer (MCF-7). Description: Calcein AM cytotoxicity assay, MCF-7. It is filed as cell-based. The note with it: 72 hrs.
Description: as §1

For series [9], the system named is human erythromleukemia (K562). The series is described as follows: Calcein AM cytotoxicity assay, K562. It is filed as cell-based. The note with it: 72 hrs.
Description: as §1

In the case of `OC[C@H]1O[C@@H](n2cnc3c(NCc4cccc(Cl)c4)ncnc32)[C@@H](O)[C@@H]1O` [6-(3-chlorobenzylamino)-9-β-D-arabinofuranosylpurine], the GI50 at 72 h in series [1], in [2] and in series [3] was over 100 µM each time. In addition, the IC50 in series [4] was over 50 µM; in [6] it was 48 µM. Also, in [5], the “activity (%) [10^−4 mol · l^−1 BAP = 100%]” value (shortened to “activity (%)”) amounted to 172 ± 8%.

As to `Cc1cccc(CNc2ncnc3c2ncn3C2OC(CO)C(O)C2O)c1C` (stereo not shown) [2,3-dimethylbenzyl], the “activity in killing Vaccinia virus and Herpes simplex virus” value in series [7] was “No effect”.

In the case of `Cc1cccc(CNc2ncnc3c2ncn3[C@@H]2O[C@H](CO)[C@@H](O)[C@@H]2O)c1` [3-methylbenzylamino-9-β-D-arabinofuranosylpurine], the GI50 (in series [8]; in the series with breast cancer (MCF-7); in series [9]) was over 100 µM each time. The “activity in killing Vaccinia virus and Herpes simplex virus” value in series [7] was “No effect”.

As for `Cc1cccc(C)c1CNc1ncnc2c1ncn2[C@@H]1O[C@H](CO)[C@@H](O)[C@@H]1O` [2,6-dimethylbenzyl], in [7], the “activity in killing Vaccinia virus and Herpes simplex virus” value is reported as “No effect”.

On to `OC[C@H]1O[C@@H](n2cnc3c(NCc4cccc(F)c4)ncnc32)[C@@H](O)[C@@H]1O` [6-(3-fluorobenzylamino)-9-β-D-arabinofuranosylpurine], for which the GI50 at 72 h in [1], in series [2] and in series [3] was over 100 µM each time. Also, the “activity (%)” value in series [5] came to 195 ± 6%.

With `Cc1ccc(CNc2ncnc3c2ncn3[C@@H]2O[C@H](CO)[C@@H](O)[C@@H]2O)cc1C` [3,4-dimethylbenzyl], in series [7], the “activity in killing Vaccinia virus and Herpes simplex virus” value is recorded as “No effect”.

With `Cc1ccccc1CNc1ncnc2c1ncn2[C@@H]1O[C@H](CO)[C@@H](O)[C@@H]1O` [2-methylbenzylamino-9-β-D-arabinofuranosylpurine], the GI50 (in series [8]; with breast cancer (MCF-7); in [9]) was over 100 µM in each case. The “activity in killing Vaccinia virus and Herpes simplex virus” value in series [7] is on record as “No effect”.

Turning to `OC[C@H]1OC(n2cnc3c(NCc4ccccc4)ncnc32)[C@H](O)[C@@H]1O` (stereo partly shown) [6-benzylaminopurin9-ribosylpurine, 6-benzylamino-9-ribosylpurine, reference compound], the GI50 at 72 h in [1] was 39 µM; in [2], 5.4 µM; in [3], 5.5 µM. Moreover, the IC50 in series [4] was at most 3 µM. Moreover, the “toxicity in the MTT test” value in series [4] (positive controls) is “toxic”.

On to “2-chloro-4-fluorobenzylamino-9-β-D-arabinofuranosylpurine”, for which the GI50 (in [8]; in the series on breast cancer (MCF-7); in series [9]) was over 100 µM throughout.

For the compound `OC[C@H]1O[C@@H](n2cnc3c(NCc4ccccc4)ncnc32)C[C@@H]1O` [6-benzylamino-9-β-D-deoxyribosylpurine], the GI50 (in series [8]; with breast cancer (MCF-7); in [9]) was over 100 µM throughout. For the same compound, in series [5] (96 h in the dark at 25° C.), the maximum effective concentration is 10^−4 mol · l^−1. Moreover, the “activity (%)” value in series [5] is 178 ± 9%.

Take `OC[C@H]1O[C@@H](n2cnc3c(NCc4ccc(Cl)cc4)ncnc32)[C@@H](O)[C@@H]1O` [4-chlorobenzylamino-9-β-D-arabinofuranosylpurine]: the GI50 (in series [8]; with breast cancer (MCF-7); in series [9]) was over 100 µM each time.

`OC[C@H]1O[C@@H](n2cnc3c(NCc4cccc(F)c4)ncnc32)C[C@@H]1O` [3-fluorobenzylamino-9-β-D-2′-deoxyribosylpurine]: the GI50 (in [8]; in the series with breast cancer (MCF-7); in series [9]) was over 100 µM throughout.

Consider “3-chloro-4-fluorobenzylamino-9-β-D-arabinofuranosylpurine”, for which the GI50 (in [8]; in the series on breast cancer (MCF-7); in [9]) was over 100 µM throughout.

Regarding “2,4-dimethoxybenzylamino-9-β-D-arabinofuranosylpurine”, the GI50 in series [8] is over 100 µM; with breast cancer (MCF-7), 98 µM; in series [9], over 100 µM.

On to `OC[C@H]1O[C@@H](n2cnc3c(NCc4cccc(O)c4)ncnc32)C[C@@H]1O` [3-hydroxybenzylamino-9-β-D-2′-deoxyribosylpurine], for which the GI50 (in [8]; in the series on breast cancer (MCF-7); in [9]) was over 100 µM throughout.
